Results on 13 compounds are retold here after US20250382332A1, “NOVEL ALPHA-FACTOR BASED PEPTIDES WITH ANTIFUNGAL ACTIVITY” (INVAIO SCIENCES, INC., priority 2024, published 2025).

SMILES strings stand for the structures. Peptide text beside a SMILES is read from it. Some results are limits rather than exact numbers.

The subject of this test is Botrytis cinerea (B05.10). The experiment in a line: Resazurin antifungal assay of 180 alpha-factor peptide variants towards Botrytis (Example 2). It is filed as cell-based. Conditions: for Inhibition at 10 μM / Inhibition at 20 μM / Inhibition at 50 μM / Inhibition at 100 μM / Inhibition at 15 μM: % inhibition of fungal growth, Botrytis conidia, resazurin; for Inhibition at 20 μM: peptide 20 μM; for Inhibition at 50 μM: peptide 50 μM; for Inhibition at 100 μM: peptide 100 μM; for Inhibition at 15 μM / active against Botrytis at 15 μM: peptide 15 μM. On the set-up: key to active against Botrytis at 15 μM / active against Botrytis at 10 μM: Peptides that showed greater than 90% inhibition were considered active against Botrytis. Summed up: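 B. cinerea B05.10 conidia (5000/well) were exposed to peptides at 100, 50, 20, 15 and 10 μM final for 24 h at 20° C. Resazurin was then added and fluorescence read at 570/620 nm. Percent growth inhibition was calculated against conidia-only wells, with four technical replicates.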

On to `CC[C@H](C)[C@H](NC(=O)[C@H](CCCCN)NC(=O)[C@H](CC(C)C)NC(=O)[C@H](CCC(N)=O)NC(=O)[C@H](CC(C)C)NC(=O)[C@@H](NC(=O)[C@H](CCCCN)NC(=O)[C@@H](N)Cc1c[nH]c2ccccc12)[C@@H](C)O)C(=O)NCC(=O)N[C@@H](C)C(=O)N1CCC[C@H]1C(=O)N[C@@H](CCSC)C(=O)N[C@@H](Cc1ccc(O)cc1)C(=O)O` [compound 60] (H-WKTLQLKIGAPMY-OH; N-terminus and C-terminus assumed), for which the Inhibition (in general, the relative decrease from the control value, in per cent) at 20 μM is given as under 90%; the “Inhibition at 50 μM” value came out at 100%; the “Inhibition at 100 μM” value was determined as 100%. Moreover, the “Inhibition at 10 μM” value (peptide 10 μM) is on record as under 90%.
On to `CSCC[C@H](NC(=O)[C@@H]1CCCN1C(=O)[C@H](CCC(N)=O)NC(=O)CNC(=O)[C@@H]1CCCN1C(=O)[C@H](Cc1ccccc1)NC(=O)[C@H](CC(C)C)NC(=O)[C@H](CCCCN)NC(=O)[C@H](CC(C)C)NC(=O)[C@H](Cc1c[nH]c2ccccc12)NC(=O)[C@H](Cc1c[nH]cn1)NC(=O)[C@@H](N)CCCCN)C(=O)N[C@@H](Cc1ccc(O)cc1)C(=O)O` [compound 61] (H-KHWLKLFPGQPMY-OH; N-terminus and C-terminus assumed), for which the “Inhibition at 15 μM” value is listed as under 90%, the “Inhibition at 20 μM” value turned out to be 98.64%, the “Inhibition at 50 μM” value is recorded as 100% and the “Inhibition at 100 μM” value turned out to be 100%. The “Inhibition at 10 μM” value (peptide 10 μM) is reported as under 90%.
On to `CC[C@H](C)[C@H](NC(=O)[C@H](CCCCN)NC(=O)[C@@H](NC(=O)[C@H](CCCCN)NC(=O)[C@H](CC(C)C)NC(=O)[C@H](Cc1c[nH]c2ccccc12)NC(=O)[C@H](Cc1c[nH]cn1)NC(=O)[C@@H](N)CCCCN)[C@@H](C)CC)C(=O)NCC(=O)N[C@@H](CCC(=O)O)C(=O)N1CCC[C@H]1C(=O)N[C@@H](CCSC)C(=O)N[C@@H](Cc1ccc(O)cc1)C(=O)O` [compound 62] (H-KHWLKIKIGEPMY-OH; N-terminus and C-terminus assumed), for which the “Inhibition at 15 μM” value is on record as 98.89%, the “Inhibition at 20 μM” value is 100%, the “Inhibition at 50 μM” value is listed as 100% and the “Inhibition at 100 μM” value was determined as 100%. The “active against Botrytis at 15 μM” value is reported as “active”. In addition, the “Inhibition at 10 μM” value (peptide 10 μM) is under 90%.
In the case of `CC[C@H](C)[C@H](NC(=O)[C@H](CCC(N)=O)NC(=O)[C@H](CC(C)C)NC(=O)[C@H](Cc1c[nH]c2ccccc12)NC(=O)[C@H](CCCNC(=N)N)NC(=O)[C@@H]1CCCN1)C(=O)N[C@@H](CCCCN)C(=O)N[C@@H](CCCCN)C(=O)NCC(=O)N[C@@H](CCC(N)=O)C(=O)N[C@@H](CO)C(=O)N[C@@H](CCSC)C(=O)N[C@@H](Cc1ccc(O)cc1)C(=O)O` [compound 63] (H-PRWLQIKKGQSMY-OH; N-terminus and C-terminus assumed), the “Inhibition at 20 μM” value was under 90%, the “Inhibition at 50 μM” value is on record as 100% and the “Inhibition at 100 μM” value amounted to 100%. Also, the “Inhibition at 10 μM” value (peptide 10 μM) was under 90%.
In the case of `CSCC[C@H](NC(=O)CNC(=O)[C@H](CO)NC(=O)CNC(=O)[C@@H]1CCCN1C(=O)[C@H](CCCCN)NC(=O)[C@H](Cc1ccccc1)NC(=O)[C@H](CCC(N)=O)NC(=O)[C@H](CC(C)C)NC(=O)[C@H](Cc1c[nH]c2ccccc12)NC(=O)[C@H](Cc1c[nH]cn1)NC(=O)[C@@H](N)CCCCN)C(=O)N[C@@H](Cc1ccc(O)cc1)C(=O)O` [compound 64] (H-KHWLQFKPGSGMY-OH; N-terminus and C-terminus assumed), the “Inhibition at 15 μM” value is recorded as under 90%, the “Inhibition at 20 μM” value is reported as 98.09%, the “Inhibition at 50 μM” value is recorded as 100% and the “Inhibition at 100 μM” value amounted to 100%. Further, the “Inhibition at 10 μM” value (peptide 10 μM) was under 90%.
For `CSCC[C@H](NC(=O)[C@@H]1CCCN1C(=O)[C@H](CCC(N)=O)NC(=O)CNC(=O)[C@@H](NC(=O)[C@H](CCCNC(=N)N)NC(=O)[C@H](CC(C)C)NC(=O)[C@H](CC(N)=O)NC(=O)[C@@H](NC(=O)[C@H](Cc1c[nH]c2ccccc12)NC(=O)[C@H](CCCCN)NC(=O)[C@@H](N)Cc1c[nH]c2ccccc12)C(C)C)[C@@H](C)O)C(=O)N[C@@H](Cc1ccc(O)cc1)C(=O)O` [compound 65] (H-WKWVNLRTGQPMY-OH; N-terminus and C-terminus assumed), the “Inhibition at 20 μM” value is under 90%, the “Inhibition at 50 μM” value was 100% and the “Inhibition at 100 μM” value is on record as 100%. For the same compound, the “Inhibition at 10 μM” value (peptide 10 μM) was under 90%.
As for `CC[C@H](C)[C@H](NC(=O)[C@H](Cc1c[nH]c2ccccc12)NC(=O)[C@H](Cc1c[nH]cn1)NC(=O)[C@@H]1CCCN1)C(=O)N[C@@H](CO)C(=O)N[C@@H](CC(C)C)C(=O)N[C@@H](CCCCN)C(=O)N[C@@H](CCCCN)C(=O)NCC(=O)N[C@@H](CCC(N)=O)C(=O)N1CCC[C@H]1C(=O)N[C@@H](CCSC)C(=O)N[C@@H](Cc1ccc(O)cc1)C(=O)O` [compound 66] (H-PHWISLKKGQPMY-OH; N-terminus and C-terminus assumed), the “Inhibition at 15 μM” value is given as under 90%, the “Inhibition at 20 μM” value worked out at 96.17%, the “Inhibition at 50 μM” value is 100% and the “Inhibition at 100 μM” value was 100%. Moreover, where the note is “peptide 10 μM”, the “Inhibition at 10 μM” value was under 90%.
In the case of `CC[C@H](C)[C@H](NC(=O)[C@H](CCCNC(=N)N)NC(=O)[C@H](CC(C)C)NC(=O)[C@H](CCSC)NC(=O)[C@H](Cc1c[nH]cn1)NC(=O)[C@@H](N)CCCCN)C(=O)N[C@@H](CCCCN)C(=O)N1CCC[C@H]1C(=O)NCC(=O)N[C@@H](CCC(N)=O)C(=O)N1CCC[C@H]1C(=O)N[C@@H](CCSC)C(=O)N[C@@H](Cc1ccc(O)cc1)C(=O)O` [compound 67] (H-KHMLRIKPGQPMY-OH; N-terminus and C-terminus assumed), the “Inhibition at 15 μM” value is under 90%, the “Inhibition at 20 μM” value was found to be 97.68%, the “Inhibition at 50 μM” value is listed as 100% and the “Inhibition at 100 μM” value is listed as 100%. In addition, the “Inhibition at 10 μM” value (peptide 10 μM) is recorded as under 90%.
Turning to `CSCC[C@H](NC(=O)[C@@H]1CCCN1C(=O)[C@H](CCC(N)=O)NC(=O)CNC(=O)[C@H](C)NC(=O)[C@H](CCCNC(=N)N)NC(=O)[C@H](CC(C)C)NC(=O)[C@H](CCCNC(=N)N)NC(=O)CNC(=O)[C@H](Cc1c[nH]c2ccccc12)NC(=O)[C@H](Cc1c[nH]cn1)NC(=O)[C@@H](N)CCCCN)C(=O)N[C@@H](Cc1ccc(O)cc1)C(=O)O` [compound 68] (H-KHWGRLRAGQPMY-OH; N-terminus and C-terminus assumed), the “Inhibition at 15 μM” value is 99.23%, the “Inhibition at 20 μM” value turned out to be 100%, the “Inhibition at 50 μM” value was determined as 100% and the “Inhibition at 100 μM” value was found to be 100%. Also, the “active against Botrytis at 15 μM” value is “active”. For the same compound, where the note is “peptide 10 μM”, the “Inhibition at 10 μM” value was found to be 97.09% and the “active against Botrytis at 10 μM” value is reported as “active”.
Regarding `CSCC[C@H](NC(=O)[C@@H]1CCCN1C(=O)[C@H](CCC(N)=O)NC(=O)CNC(=O)[C@@H]1CCCN1C(=O)[C@H](CC(N)=O)NC(=O)[C@H](CC(C)C)NC(=O)[C@H](CCCNC(=N)N)NC(=O)[C@H](CC(C)C)NC(=O)[C@H](Cc1c[nH]c2ccccc12)NC(=O)[C@H](Cc1c[nH]cn1)NC(=O)[C@@H](N)CCCCN)C(=O)N[C@@H](Cc1ccc(O)cc1)C(=O)O` [compound 69] (H-KHWLRLNPGQPMY-OH; N-terminus and C-terminus assumed), the “Inhibition at 15 μM” value is recorded as under 90%, the “Inhibition at 20 μM” value was found to be 95.74%, the “Inhibition at 50 μM” value amounted to 100% and the “Inhibition at 100 μM” value is 100%. Moreover, the “Inhibition at 10 μM” value (peptide 10 μM) was under 90%.
Turning to `CSCC[C@H](NC(=O)[C@H](CO)NC(=O)[C@H](CCC(N)=O)NC(=O)CNC(=O)[C@@H]1CCCN1C(=O)[C@H](CCCCN)NC(=O)[C@H](CC(C)C)NC(=O)[C@H](CCCNC(=N)N)NC(=O)[C@H](CC(C)C)NC(=O)[C@H](Cc1ccc(O)cc1)NC(=O)[C@H](Cc1c[nH]cn1)NC(=O)[C@@H](N)Cc1c[nH]c2ccccc12)C(=O)N[C@@H](Cc1ccc(O)cc1)C(=O)O` [compound 70] (H-WHYLRLKPGQSMY-OH; N-terminus and C-terminus assumed), the “Inhibition at 20 μM” value is on record as under 90%, the “Inhibition at 50 μM” value is listed as 100% and the “Inhibition at 100 μM” value worked out at 100%. Further, the “Inhibition at 10 μM” value (peptide 10 μM) is under 90%.
Regarding `CC[C@H](C)[C@H](NC(=O)[C@H](Cc1c[nH]c2ccccc12)NC(=O)[C@H](Cc1c[nH]cn1)NC(=O)[C@@H](N)Cc1c[nH]c2ccccc12)C(=O)N[C@@H](CCC(N)=O)C(=O)N[C@@H](CC(C)C)C(=O)N[C@@H](CCCCN)C(=O)N[C@@H](CCCCN)C(=O)NCC(=O)N[C@@H](CCC(=O)O)C(=O)N1CCC[C@H]1C(=O)N[C@@H](CCSC)C(=O)N[C@@H](Cc1ccc(O)cc1)C(=O)O` [compound 71] (H-WHWIQLKKGEPMY-OH; N-terminus and C-terminus assumed), the “Inhibition at 20 μM” value is reported as under 90%, the “Inhibition at 50 μM” value turned out to be 100% and the “Inhibition at 100 μM” value came to 100%. The “Inhibition at 10 μM” value (peptide 10 μM) is on record as under 90%.
For `CSCC[C@H](NC(=O)[C@@H]1CCCN1C(=O)[C@H](CCC(N)=O)NC(=O)CNC(=O)[C@@H]1CCCN1C(=O)[C@H](CCCCN)NC(=O)[C@H](Cc1ccccc1)NC(=O)[C@H](CCCCN)NC(=O)[C@H](CC(C)C)NC(=O)[C@H](Cc1ccc(O)cc1)NC(=O)[C@H](Cc1c[nH]cn1)NC(=O)[C@@H](N)CCCCN)C(=O)N[C@@H](Cc1ccc(O)cc1)C(=O)O` [compound 72] (H-KHYLKFKPGQPMY-OH; N-terminus and C-terminus assumed), the “Inhibition at 15 μM” value was determined as 98.60%, the “Inhibition at 20 μM” value is listed as 100%, the “Inhibition at 50 μM” value was found to be 100% and the “Inhibition at 100 μM” value is recorded as 100%. In addition, the “active against Botrytis at 15 μM” value is “active”. For the setting “peptide 10 μM”, the “Inhibition at 10 μM” value is on record as under 90%.
